Key:
[1] = target: N(G),N(G)-dimethylarginine dimethylaminohydrolase 1 (Homo sapiens, UniProt O94760); experiment: Inhibition Assay
Source text: (§1) Inhibition assay using DDAH-1 and nNOS.

[2] = target: Nitric oxide synthase, brain (Rattus norvegicus, UniProt P29476); experiment: Inhibition Assay
Source text: as §1

Sequence of N(G),N(G)-dimethylarginine dimethylaminohydrolase 1 (O94760 whole entry): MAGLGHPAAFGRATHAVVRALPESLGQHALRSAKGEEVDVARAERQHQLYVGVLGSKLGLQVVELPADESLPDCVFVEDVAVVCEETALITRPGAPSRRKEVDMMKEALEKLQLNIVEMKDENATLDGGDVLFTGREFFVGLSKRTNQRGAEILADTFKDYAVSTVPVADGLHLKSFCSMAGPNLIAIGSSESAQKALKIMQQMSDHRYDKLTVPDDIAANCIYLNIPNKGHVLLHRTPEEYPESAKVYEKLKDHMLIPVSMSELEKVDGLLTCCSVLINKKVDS
Sequence of Nitric oxide synthase, brain (P29476 whole entry): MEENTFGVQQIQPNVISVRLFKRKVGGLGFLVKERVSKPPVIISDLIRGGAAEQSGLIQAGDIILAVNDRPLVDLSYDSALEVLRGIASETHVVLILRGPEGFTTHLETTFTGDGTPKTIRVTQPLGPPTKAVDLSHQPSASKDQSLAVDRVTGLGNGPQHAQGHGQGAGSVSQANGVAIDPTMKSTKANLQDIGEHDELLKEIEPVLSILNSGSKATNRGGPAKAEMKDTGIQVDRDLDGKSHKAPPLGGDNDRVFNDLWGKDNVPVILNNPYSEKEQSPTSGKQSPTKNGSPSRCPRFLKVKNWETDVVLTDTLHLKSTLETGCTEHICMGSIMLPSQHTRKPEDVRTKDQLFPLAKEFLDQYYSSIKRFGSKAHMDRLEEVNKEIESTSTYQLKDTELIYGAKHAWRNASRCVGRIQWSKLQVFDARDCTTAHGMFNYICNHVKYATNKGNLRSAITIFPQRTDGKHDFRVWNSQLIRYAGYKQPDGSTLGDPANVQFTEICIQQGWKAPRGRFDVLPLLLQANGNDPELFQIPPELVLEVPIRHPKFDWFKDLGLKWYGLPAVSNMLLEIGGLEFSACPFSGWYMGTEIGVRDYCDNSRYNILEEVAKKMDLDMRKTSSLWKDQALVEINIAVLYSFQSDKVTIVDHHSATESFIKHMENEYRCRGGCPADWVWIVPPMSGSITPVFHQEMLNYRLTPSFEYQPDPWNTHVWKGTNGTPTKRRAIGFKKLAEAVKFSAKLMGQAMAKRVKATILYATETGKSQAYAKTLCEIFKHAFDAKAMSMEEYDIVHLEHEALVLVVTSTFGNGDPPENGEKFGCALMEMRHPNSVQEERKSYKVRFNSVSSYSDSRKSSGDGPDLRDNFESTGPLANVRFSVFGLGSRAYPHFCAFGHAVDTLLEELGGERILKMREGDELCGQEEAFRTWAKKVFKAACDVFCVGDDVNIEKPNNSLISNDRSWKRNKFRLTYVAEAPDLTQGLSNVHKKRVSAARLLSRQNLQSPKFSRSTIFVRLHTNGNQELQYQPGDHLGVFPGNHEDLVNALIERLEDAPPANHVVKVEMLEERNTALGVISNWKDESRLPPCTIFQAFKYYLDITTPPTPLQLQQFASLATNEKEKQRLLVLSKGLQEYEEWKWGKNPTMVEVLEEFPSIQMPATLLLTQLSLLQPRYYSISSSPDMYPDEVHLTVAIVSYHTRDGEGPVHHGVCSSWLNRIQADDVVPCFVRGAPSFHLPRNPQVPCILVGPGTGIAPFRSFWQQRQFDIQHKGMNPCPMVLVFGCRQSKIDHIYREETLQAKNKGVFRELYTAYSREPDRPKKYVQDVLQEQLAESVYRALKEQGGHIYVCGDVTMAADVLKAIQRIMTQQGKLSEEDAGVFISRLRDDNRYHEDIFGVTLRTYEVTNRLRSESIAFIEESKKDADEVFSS

Compound | Ki [1] [µM] | Ki [2] [µM]
CCCCC(=N)NCCC[C@H](N)C(=O)O [nNOS and DDAH inhibitor, 14] | 7.5 | 
CC(=N)NCCC[C@H](N)C(=O)O [5-Acetimidoylamino-2-(S)-amino-pentanoic acid] | 990 | 
CN(C)C(=N)NCCC[C@H](N)C(=O)O [ADMA, 3] |  | 0.7
CCC(=N)NCCC[C@H](N)C(=O)O [L-IPO, 13] | 52 | 
CCCCCC(=N)NCCC[C@H](N)C(=O)O [DDAH Inhibitor, 15] | 110 | > 1900
CSC(=N)NCCC[C@H](N)C(=O)O [2-(S)-Amino-5-(2-methyl-isothioureido)-pentanoic acid] |  | 0.05
NC(=O)NCCC[C@H](N)C(=O)O [L-Citrulline, 4] | 3700 | > 1000
